Test results as given in ChEMBL document CHEMBL5390259, “Structure Determination of Kahalalide Analogues Based on Metagenomic Analysis of a Bryopsis sp. Marine Green Alga” (J Nat Prod, 2023).

Assay: Cytotoxicity against rat 3Y1 cells incubated for 2 days by MTT assay
Type: toxicity, cell-based

| Structure (SMILES) | IC50 at 2 days [µM] |
| --- | --- |
| C/C=C1\NC(=O)[C@H](Cc2ccccc2)NC(=O)[C@@H]([C@@H](C)CC)NC(=O)[C@@H]([C@@H](C)CC)NC(=O)[C@H](NC(=O)[C@@H](CC(C)C)NC(=O)[C@H](CCCN)NC(=O)[C@H]2CCCN2C(=O)[C@H](NC(=O)[C@@H](NC(=O)[C@@H](NC(=O)[C@H](NC(=O)CCC)[C@@H](C)O)C(C)C)C(C)C)C(C)C)[C@@H](C)OC(=O)[C@H](C(C)C)NC1=O | 10 |
| C/C=C1\NC(=O)[C@H](Cc2ccccc2)NC(=O)[C@@H]([C@@H](C)CC)NC(=O)[C@@H]([C@@H](C)CC)NC(=O)[C@H](NC(=O)[C@@H](CC(C)C)NC(=O)[C@H](CCCN)NC(=O)[C@H]2CCCN2C(=O)[C@H](NC(=O)[C@@H](NC(=O)[C@@H](NC(=O)[C@H](NC(=O)C=C(C)C)[C@@H](C)O)C(C)C)C(C)C)C(C)C)[C@@H](C)OC(=O)[C@H](C(C)C)NC1=O | 7.4 |
